Reference: US8404670B2 (Sunovion Pharmaceuticals Inc., priority 2009, dated 2013)

Target: T1, human histamine H3 receptor (Homo sapiens, UniProt Q9Y5N1)
T1 construct: host or cells: cells expressing the human H3 receptor
Experiment: H3 GTPγS assay (SPA method), histamine H3 in vitro assay
Assay type: biochemical
Conditions: GTPγ[35S] binding to membranes of cells expressing human H3; antagonist mode with R-γ-Me-Histamine at EC80 (30 nM); in one embodiment HCl salts tested; read-out: Potency (functional potency as indicated by IC50)

T1 sequence (Q9Y5N1 whole entry): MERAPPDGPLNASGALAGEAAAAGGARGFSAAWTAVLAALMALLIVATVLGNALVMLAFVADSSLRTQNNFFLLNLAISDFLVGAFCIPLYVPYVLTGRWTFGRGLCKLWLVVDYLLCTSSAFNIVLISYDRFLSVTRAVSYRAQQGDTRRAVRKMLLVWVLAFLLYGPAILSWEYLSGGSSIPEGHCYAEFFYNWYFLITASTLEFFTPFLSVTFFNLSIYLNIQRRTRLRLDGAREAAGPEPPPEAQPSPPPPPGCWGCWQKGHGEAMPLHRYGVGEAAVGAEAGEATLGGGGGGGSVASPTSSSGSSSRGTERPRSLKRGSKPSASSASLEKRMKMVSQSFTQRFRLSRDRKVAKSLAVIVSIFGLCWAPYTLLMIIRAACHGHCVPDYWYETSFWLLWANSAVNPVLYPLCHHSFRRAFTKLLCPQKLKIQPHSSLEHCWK

Row | Structure (SMILES) | IC50 [nM]
1 | Cn1ncc2ccc(-c3ccc4c(c3)nc3n4CCN(C4CCC4)CC3)cc21 [Compound 205, 3-cyclobutyl-8-(1-methyl-1H-indazol-6-yl)-2,3,4,5-tetrahydro-1H-benzo[4,5]imidazo[1,2-d][1,4]diazepine] | ≤ 100
2 | CN1CCN(c2ccc3c(c2)nc2n3CCN(C3CCC3)CC2)CC1 [Compound 73, 3-cyclobutyl-9-(4-methylpiperazin-1-yl)-2,3,4,5-tetrahydro-1H-[1,4]diazepino[1,7-a]benzimidazole] | ≤ 10
3 | c1cnc(N2CCN(c3ccc4c(c3)nc3n4CCN(C4CCC4)CC3)CC2)cn1 [Compound 233, 3-cyclobutyl-8-(4-(pyrazin-2-yl)piperazin-1-yl)-2,3,4,5-tetrahydro-1H-benzo[4,5]imidazo[1,2-d][1,4]diazepine] | ≤ 10
4 | CNC(=O)c1ccc(Oc2ccc3nc4n(c3c2)CCN(C2CCC2)CC4)nc1 [Compound 76] | ≥ 1000
5 | c1c2c(cc3c1nc1n3CCN(C3CCC3)CC1)CNCC2 [Compound 189, 9-cyclobutyl-2,3,4,7,8,9,10,11-octahydro-1H-[1,4]diazepino[1′,7′:1,2]imidazo[4,5-g]isoquinoline] | ≤ 100
6 | c1cc2nc3n(c2cc1CN1CCCC1)CCN(C1CCC1)CC3 [Compound 89] | ≤ 10
7 | c1cnc(Cc2ccc3c(c2)nc2n3CCN(C3CCC3)CC2)cn1 [Compound 122, 3-cyclobutyl-8-(pyrazin-2-ylmethyl)-2,3,4,5-tetrahydro-1H-benzo[4,5]imidazo[1,2-d][1,4]diazepine] | ≤ 100
8 | CC(C1CCC1)N1CCc2nc3cc(-c4ccc5[nH]ccc5c4)ccc3n2CC1 (centres unmarked) [Compound 10] | ≥ 1000
9 | Brc1cnc2c(c1)nc1n2CCN(C2CCC2)CC1 [Compound 235, 7-Aza-3-cyclobutyl-9-bromo-2,3,4,5-tetrahydro-1H-[1,4]diazepino[1,7-a]benzimidazole] | ≥ 1000
10 | O=C(c1ccc2c(c1)nc1n2CCN(C2CCC2)CC1)c1cnccn1 [Compound 121, (3-cyclobutyl-2,3,4,5-tetrahydro-1H-benzo[4,5]imidazo[1,2-d][1,4]diazepin-8-yl)(pyrazin-2-yl)methanone] | ≤ 100
11 | c1cnc(N2CCc3cc4nc5n(c4cc3C2)CCN(C2CCC2)CC5)cn1 [Compound 190, 9-cyclobutyl-2-(pyrazin-2-yl)-2,3,4,7,8,9,10,11-octahydro-1H-[1,4]diazepino[1′,7′:1,2]imidazo[4,5-g]isoquinoline] | ≤ 10
12 | FC1CCN(c2ccc3c(c2)nc2n3CCN(C3CCC3)CC2)C1 (centres unmarked) [Compound 181, 3-cyclobutyl-8-(3-fluoropyrrolidin-1-yl)-2,3,4,5-tetrahydro-1H-benzo[4,5]imidazo[1,2-d][1,4]diazepine] | ≤ 100
13 | c1cc2c(nc3n2CCN(C2CCC2)CC3)c2c1CNCC2 [Compound 184, 10-cyclobutyl-2,3,4,8,9,10,11,12-octahydro-1H-[1,4]diazepino[1′,7′:1,2]imidazo[4,5-f]isoquinoline] | ≤ 1000
14 | c1cc2c(cc1N1CCN(CC3CC3)CC1)nc1n2CCN(C2CCC2)CC1 [Compound 104, 3-cyclobutyl-9-(4-(cyclopropylmethyl)piperazin-1-yl)-2,3,4,5-tetrahydro-1H-[1,4]diazepino[1,7-a]benzimidazole] | ≤ 10
15 | c1cnc(-c2ccc3c(c2)nc2n3CCN(C3CCC3)CC2)nc1 [Compound 123, 3-cyclobutyl-8-(pyrimidin-2-yl)-2,3,4,5-tetrahydro-1H-benzo[4,5]imidazo[1,2-d][1,4]diazepine] | ≤ 100
16 | NCc1ccc2c(c1)nc1n2CCN(C2CCC2)CC1 [Compound 140] | ≤ 100
17 | c1cnc(-c2ccc3c(c2)nc2n3CCN(C3CCC3)CC2)cn1 [Compound 24] | ≤ 10
18 | N#Cc1ccc(N2CCN(c3ccc4c(c3)nc3n4CCN(C4CCC4)CC3)CC2)cc1 [Compound 228, 4-(4-(3-cyclobutyl-2,3,4,5-tetrahydro-1H-benzo[4,5]imidazo[1,2-d][1,4]diazepin-8-yl)piperazin-1-yl)benzonitrile] | ≤ 10
19 | CN(C)C(=O)c1ccc2c(c1)nc1n2CCN(C2CCC2)CC1 [Compound 57] | ≤ 1000
20 | Fc1ccc(CNc2ccc3c(c2)nc2n3CCN(C3CCC3)CC2)cc1 [Compound 62] | ≤ 100
21 | c1cc2c(cc1N1CCCCC1)nc1n2CCN(C2CCC2)CC1 [Compound 175, 3-cyclobutyl-8-(piperidin-1-yl)-2,3,4,5-tetrahydro-1H-benzo[4,5]imidazo[1,2-d][1,4]diazepine] | ≤ 10
22 | N#Cc1ccc(-c2ccc3c(c2)nc2n3CCN(Cc3cnc[nH]3)CC2)cc1 [Compound 18] | ≥ 1000
23 | N#Cc1ccc(-c2ccc3c(c2)nc2n3CCN(CC3CC3)CC2)cc1 [Compound 39] | ≤ 100
24 | Cc1nn(C)c(C)c1-c1ccc2c(c1)nc1n2CCN(C2CCC2)CC1 [Compound 26] | ≤ 1000

Row | Structure (SMILES) | IC50 [nM]
25 | c1cc2c(cc1N1CCN(C3CCCC3)CC1)nc1n2CCN(C2CCC2)CC1 [Compound 100, 3-cyclobutyl-9-(4-cyclopentylpiperazin-1-yl)-2,3,4,5-tetrahydro-1H-[1,4]diazepino[1,7-a]benzimidazole] | ≤ 10
26 | CC(C1CCC1)N1CCc2nc3cc(-c4ccc(C#N)cc4)ccc3n2CC1 (centres unmarked) [Compound 6] | ≤ 100
27 | CC(C)N1CCc2nc3cc(-c4ccc(C#N)cc4)ccc3n2CC1 [Compound 32, 4-(3-isopropyl-2,3,4,5-tetrahydro-1H-[1,4]diazepino[1,7-a]benzimidazol-9-yl)benzonitrile] | ≤ 100
28 | CNC(=O)c1ccc(Oc2ccc3c(c2)nc2n3CCN(C3CCC3)CC2)nc1 [Compound 50, 6-(3-cyclobutyl-2,3,4,5-tetrahydro-1H-[1,4]diazepino[1,7-a]benzimidazol-9-yloxy)-N-methylnicotinamide] | ≤ 10
29 | c1cnc(N2Cc3cc4nc5n(c4cc3C2)CCN(C2CCC2)CC5)nc1 [Compound 148, 8-cyclobutyl-2-(pyrimidin-2-yl)-1,2,3,6,7,8,9,10-octahydro-[1,4]diazepino[1′,7′:1,2]imidazo[4,5-f]isoindole] | ≤ 100
30 | N#Cc1ccc(-c2ccc3c(c2)nc2n3CCN(C3CCOCC3)CC2)cc1 [Compound 38] | ≤ 100
31 | COc1ccnc(OCc2ccc3c(c2)nc2n3CCN(C3CCC3)CC2)n1 [Compound 107] | ≤ 100
32 | c1ccc2cc(-c3ccc4c(c3)nc3n4CCN(C4CCC4)CC3)ccc2c1 [Compound 214, 3-cyclobutyl-8-(naphthalen-2-yl)-2,3,4,5-tetrahydro-1H-benzo[4,5]imidazo[1,2-d][1,4]diazepine] | ≤ 100
33 | N#Cc1ccc(-c2ccc3nc4n(c3c2)CCN(C2CCC2)CC4)cc1 [Compound 41] | ≤ 1000
34 | CC(=O)N1CCCC(c2ccc3c(c2)nc2n3CCN(C3CCC3)CC2)C1 (centres unmarked) [Compound 171, 1-(3-(3-cyclobutyl-2,3,4,5-tetrahydro-1H-benzo[4,5]imidazo[1,2-d][1,4]diazepin-8-yl)piperidin-1-yl)ethanone] | ≤ 10
35 | Cc1nncn1-c1ccc2c(c1)nc1n2CCN(C2CCC2)CC1 [Compound 157, 3-cyclobutyl-8-(3-methyl-4H-1,2,4-triazol-4-yl)-2,3,4,5-tetrahydro-1H-benzo[4,5]imidazo[1,2-d][1,4]diazepine] | ≤ 100
36 | Cn1cnc2cc(-c3ccc4c(c3)nc3n4CCN(C4CCC4)CC3)cnc21 [Compound 202, 3-cyclobutyl-8-(3-methyl-3H-imidazo[4,5-b]pyridin-6-yl)-2,3,4,5-tetrahydro-1H-benzo[4,5]imidazo[1,2-d][1,4]diazepine] | ≤ 10
37 | c1ccc2c(c1)CCN(c1ccc3c(c1)nc1n3CCN(C3CCC3)CC1)C2 [Compound 176, 3-cyclobutyl-8-(3,4-dihydroisoquinolin-2(1H)-yl)-2,3,4,5-tetrahydro-1H-benzo[4,5]imidazo[1,2-d][1,4]diazepine] | ≤ 10
38 | CN1CCN(c2cncc(-c3ccc4c(c3)nc3n4CCN(C4CCC4)CC3)n2)CC1 [Compound 95, 3-cyclobutyl-9-(6-(4-methylpiperazin-1-yl)pyrazin-2-yl)-2,3,4,5-tetrahydro-1H-[1,4]diazepino[1,7-a]benzimidazole] | ≤ 10
39 | c1ncn(-c2ccc3c(c2)nc2n3CCN(C3CCC3)CC2)n1 [Compound 152, 3-cyclobutyl-8-(1H-1,2,4-triazol-1-yl)-2,3,4,5-tetrahydro-1H-benzo[4,5]imidazo[1,2-d][1,4]diazepine] | ≤ 100
40 | CC(=O)Nc1ccc(-c2ccc3c(c2)nc2n3CCN(C3CCN(C)CC3)CC2)cc1 [Compound 9, N-(4-(3-(1-methylpiperidin-4-yl)-2,3,4,5-tetrahydro-1H-[1,4]diazepino[1,7-a]benzimidazol-9-yl)phenyl)acetamide] | ≤ 1000
41 | c1cc2ncc(-c3ccc4c(c3)nc3n4CCN(C4CCC4)CC3)cc2[nH]1 [Compound 200, 3-cyclobutyl-8-(1H-pyrrolo[3,2-b]pyridin-6-yl)-2,3,4,5-tetrahydro-1H-benzo[4,5]imidazo[1,2-d][1,4]diazepine] | ≤ 10
42 | CC1CCC(N2CCc3nc4cc(-c5ccc(C#N)cc5)ccc4n3CC2)C1 (racemic) [Compound 34, rac-cis/trans-4-(3-(3-methylcyclopentyl)-2,3,4,5-tetrahydro-1H-[1,4]diazepino[1,7-a]benzimidazol-9-yl)benzonitrile] | ≤ 100
43 | CN1Cc2cc3nc4n(c3cc2C1)CCN(C1CCC1)CC4 [Compound 146, 8-cyclobutyl-2-methyl-1,2,3,6,7,8,9,10-octahydro-[1,4]diazepino[1′,7′:1,2]imidazo[4,5-f]isoindole] | ≤ 10
44 | CN1CCC(N2CCc3nc4cc(-c5ccc(CN)cc5)ccc4n3CC2)CC1 [Compound 16] | ≥ 1000
45 | N#Cc1ccc(CNc2ccc3c(c2)nc2n3CCN(C3CCC3)CC2)cc1 [Compound 63] | ≤ 100
46 | N#Cc1ccc(C(=O)N2CCc3cc4c(cc3C2)nc2n4CCN(C3CCC3)CC2)cc1 [Compound 185, 4-(9-cyclobutyl-2,3,4,7,8,9,10,11-octahydro-1H-[1,4]diazepino[7′,1′:2,3]imidazo[4,5-g]isoquinoline-2-carbonyl)benzonitrile] | ≤ 10
47 | N#Cc1ccc2nc3n(c2c1)CCN(C1CCC1)CC3 [Compound 82] | ≥ 1000
